Results: patent publication US8168747B2, “On-growth inhibiting compounds” (Viogard AB, priority 2002, dated 2012)
Entries after “also recorded” stand apart in the source; their conditions may differ.

Assays:
B. improvisus [1] = assay: Reversibility test: cyprids moved to fresh seawater; assay type: in vivo, Balanus improvisus; conditions: cyprids from 2.5 μM moved to fresh sea water; five days
Experimental: (§1) The brood stock of adult barnacles (B. improvisus, Darwin 1854) were allowed to settle on plexiglass panels in the sea on a raft outside Tjärnö Marine Biological Laboratory (58° 53′ N, 11° 8′ E). Cleaned from epiphytes they were brought to the laboratory and immediately placed in trays with running seawater (salinity […]). When regularly fed, with nauplii of Artemia salina, B. improvisus will spawn throughout the year. For larval rearing we used the method according to Berntsson et al., described in “Reduction of barnacle recruitment on micro-textured surfaces: Analysis of effective topographic characteristics and evaluation of skin friction”, Biofouling 16, 245-261. The experiment for the evaluation of the effect on settlement and mortality was performed using polystyrene Petri dishes (Ø48 mm) to which 10 ml of the peptide dissolved to different concentrations in filtered seawater (0.2 μm, 32±1%) was added. Competent cyprids (20±2 ind.) were added to each dish in four replicates and dishes with filtered seawater served as controls. Dishes were maintained for 3-4 days in room temperature after which they were examined under a stereo microscope for attached and metamorphosed individuals and also, for dead cyprids.
Half of the number of cyprids in each petri dish incubated at the highest tested concentration, 2.5 μM, were moved to a petri dish containing 10 ml of fresh seawater. […]

B. improvisus [2] = assay: Larval bioassay: settlement and mortality of barnacle cyprids; assay type: in vivo, Balanus improvisus
Experimental: as §1
Results are reported as means±standard error and using 1-factor analysis of variance (ANOVA).

Helicoverpa punctigera = conditions: feeding trial, cited from earlier work

cyclo(VWIPCISSAIGCSCKSKVCYRNGIPCGESC) (head-to-tail cyclic) [cycloviolacin O2]
mortality in reversibility test (B. improvisus [1]): No increase in mortality was observed | settlement (B. improvisus [2]; 0.0025 μM (lowest tested concentration), 3-4 days, control 67±3%): 68±3% | settlement (B. improvisus [2]; 0.025 μM, 3-4 days): 21±0.5% | inhibition of settlement (B. improvisus [2]; 0.25 μM, 3-4 days): complete inhibition of settlement; also recorded: complete inhibition of fouling | mortality compared to the control (B. improvisus [2]; all tested concentrations up to 2.5 μM, control saltwater only): No one of the tested concentrations showed an increase in mortality; also recorded: No increase in mortality could be detected

kalata B1: cyclotide with potent insecticidal activities reported by Jennings and coworkers (cyclo(GLPVCGETCVGGTCNTPGCTCSWPVCTRN); not fully specified (bridges); cysteine pairing not given here; UniProt P56254 89-117, looked up)
mortality of insect larvae (Helicoverpa punctigera; over time): increase in mortality over time | growth and development of the insect larvae (Helicoverpa punctigera): greatly affected
